Drawing on US12559474B2, “Triazine derivatives having virus replication inhibitory activity and pharmaceutical composition comprising the same” (priority 2021, dated 2026), this text covers EC50 and IC50 for 25 compounds.

Like-named read-outs stand apart in the source and are kept apart here.

Assay [1] relates to SARS-CoV-2. Description: microbe, parasite or virus in culture. It is filed as cell-based. The settings on record: Severe acute respiratory syndrome coronavirus 2, VeroE6/TMPRSS2, 72 h, 50% SARS-CoV-2 infected cell death inhibitory concentration, VeroE6/TMPRSS2 cells, 3 days culture.
The target of assay [2] is SARS-CoV-2 3CL protease (Severe acute respiratory syndrome coronavirus 2, UniProt P0DTD1). As to the kind of experiment: biochemical. The note with it: 50% SARS-CoV-2 3CL protease inhibitory concentration, read-out: IC50.

In general, EC50 refers to the concentration needed to bring the measured effect to its halfway point. By IC50 is commonly meant the concentration that gives 50% inhibition. `CSc1nc(=O)n(-c2cncc3ccccc23)c(=O)n1Cc1cc(F)c(F)c(F)c1` [II-0232] had an EC50 in assay [1] (class symbols) of less than 1000 nM. Moreover, in assay [2] (RapidFire MS), the IC50 was found to be 3700 nM.
`N#CC1(Cn2cc3cc(Nc4nc(=O)n(Cc5ccc[nH]c5=O)c(=O)n4Cc4cc(F)c(F)c(F)c4)c(Cl)cc3n2)CC1` [II-0412]: in assay [1] (class symbols), the EC50 is 1000 to 10000 nM. Further, the IC50 in assay [2] (given as class symbols) was less than 100 nM.
For `CC(=O)Nc1nc2cc(Cl)c(Nc3nc(=O)n(Cc4ncn(C)n4)c(=O)n3Cc3cc(F)c(F)cc3F)cc2s1` [II-0560] the same measures were 1000 to 10000 nM and less than 100 nM.
In the same order, the values of `COc1ccc(Nc2nc(=O)n(-c3cncc(C)c3)c(=O)n2Cc2ccc(F)c(C#N)c2)cc1` [II-0182] are less than 1000 nM and less than 100 nM.
In the same order, the values of `Cc1cncc(-n2c(=O)nc(Nc3cc4cn(C)nc4cc3Br)n(Cc3ccc(F)c(C#N)c3)c2=O)c1` [II-0167] are less than 1000 nM and less than 100 nM.
On to `Cc1cncc(-n2c(=O)nc(Nc3ccc4c(c3)CCO4)n(Cc3cc(F)c(F)c(F)c3)c2=O)c1` [II-0203], for which the half-maximal effective concentration (EC50) in assay [1] (class symbols) was less than 1000 nM. Also, the IC50 in assay [2] (given as class symbols) is less than 100 nM.
For `COc1ccc(Nc2nc(=O)n(Cc3ccc[nH]c3=O)c(=O)n2CC2CCCCC2)cc1` [Compound I-0134], the EC50 in assay [1] (class symbols) was less than 1000 nM. Also, the values for the IC50 in assay [2] (given as class symbols) and in assay [2] (RapidFire MS) were 1000 to 10000 nM and 4000 nM, respectively.
In turn, `Cn1cc2cc(Nc3nc(=O)n(Cc4ccc[nH]c4=O)c(=O)n3Cc3cc(F)c(F)c(F)c3)c(Cl)cc2n1` [Compound I-0436] displayed an EC50 in assay [1] (class symbols) of less than 1000 nM. Also, in assay [2] (given as class symbols), the IC50 was less than 100 nM.
For `CC(C)(O)Cn1cc2cc(Nc3nc(=O)n(Cc4ccc[nH]c4=O)c(=O)n3Cc3cc(F)c(F)c(F)c3)c(Cl)cc2n1` [Compound I-0447] the same measures were 1000 to 10000 nM and less than 100 nM.
Take `Cn1cnc(Cn2c(=O)nc(Nc3cc4c(C5CC5)n(C)nc4cc3Cl)n(Cc3cc(F)c(F)cc3F)c2=O)n1` [II-0446]: in assay [1] (class symbols), the EC50 is 1000 to 10000 nM. In assay [2] (given as class symbols), the IC50 is less than 100 nM.
For `C=Cc1cc(Cn2c(Nc3cc4cn(C)nc4cc3Cl)nc(=O)n(-c3cncc(C)c3)c2=O)ccc1F` [II-0587] the same measures were less than 1000 nM and less than 100 nM.
For `Cc1cncc(-n2c(=O)nc(Nc3cc4c(cc3Cl)OC(C)C4)n(Cc3ccc(F)c(C#N)c3)c2=O)c1` (stereo not drawn) [II-0114] the same measures were less than 1000 nM and less than 100 nM.
For `Cn1cnc(Cn2c(=O)nc(Nc3cc4c(C(F)F)n(C)nc4cc3Cl)n(Cc3cc(F)c(F)cc3F)c2=O)n1` [II-0514] the same measures were 1000 to 10000 nM and less than 100 nM.
In assay [1] (class symbols), `Cn1cc2cc(Nc3nc(=O)n(-c4cncc(N)c4)c(=O)n3Cc3cc(F)c(F)cc3F)c(Cl)cc2n1` [II-0386] yielded an EC50 of 1000 to 10000 nM. Further, the IC50 in assay [2] (given as class symbols) is less than 100 nM.
For `COc1cc(Cl)c(Nc2nc(=O)n(-c3cncc(C)c3)c(=O)n2Cc2ccc(F)c(C#N)c2)cn1` [II-0479] the same measures were 1000 to 10000 nM and less than 100 nM.
In the same order, the values of `Cn1cc2cc(Nc3nc(=O)n(-c4cnc5ccccn45)c(=O)n3Cc3cc(Cl)c(F)cc3F)c(Cl)cc2n1` [II-0487] are 1000 to 10000 nM and less than 100 nM.
`Cc1cncc(-n2c(=O)nc(Nc3cc4cn(C)nc4cc3F)n(Cc3cc(C#N)c(F)cc3Cl)c2=O)c1` [II-0053] showed an EC50 in assay [1] (class symbols) of less than 1000 nM. Besides, the half-maximal inhibitory concentration (IC50) in assay [2] (given as class symbols) was less than 100 nM.
In assay [1] (class symbols), `Cc1cncc(-n2c(=O)nc(Nc3cc4cn(C)nc4cc3Cl)n(Cc3cc(C#N)c(F)cc3CCC(C)C)c2=O)c1` [II-0092] came in with an EC50 of less than 1000 nM. The IC50 in assay [2] (given as class symbols) is less than 100 nM.
For `CNc1nc2cc(F)c(Nc3nc(=O)n(-c4cncc(C)c4)c(=O)n3Cc3cc(F)c(F)cc3F)cc2s1` [II-0501] the same measures were less than 1000 nM and less than 100 nM.
For `Cn1cnc(Cn2c(=O)nc(Nc3cc4c(N5CCCC5)n(C)nc4cc3Cl)n(Cc3cc(F)c(F)c(F)c3)c2=O)n1` [II-0453] the same measures were 1000 to 10000 nM and less than 100 nM.
In the same order, the values of `Cn1cc2cc(Nc3nc(=O)n(-c4cncc5ccccc45)c(=O)n3Cc3cc(F)c(F)c(F)c3)ccc2n1` [Compound I-0380] are less than 1000 nM and less than 100 nM.
Compound `CCNc1nc2cc(Cl)c(Nc3nc(=O)n(-c4cncc(C)c4)c(=O)n3Cc3ccc(F)c(C#N)c3)cc2s1` [II-0336] returned an EC50 in assay [1] (class symbols) of less than 1000 nM. In assay [2] (given as class symbols), the IC50 was less than 100 nM.
In turn, `C#Cc1cncc(-n2c(=O)nc(Nc3ccc(OC)cc3)n(Cc3cc(F)c(F)c(F)c3)c2=O)c1` [II-0604] showed an EC50 in assay [1] (CellTiter-Glo 2.0) of 9760 nM. The IC50 in assay [2] (RapidFire MS) amounted to 470 nM.
Turning to `Cc1cncc(-n2c(=O)nc(Nc3cc4cn(C)nc4cc3F)n(Cc3cc(F)c(F)c(F)c3)c2=O)c1` [Compound I-0112], the EC50 in assay [1] (class symbols) is less than 1000 nM. For the same compound, the IC50 in assay [2] (given as class symbols) was less than 100 nM.
In the same order, the values of `O=c1nc(Nc2cc3cn(CCO)nc3cc2Cl)n(Cc2cc(Cl)c(F)cc2F)c(=O)n1Cc1ncccn1` [II-0238] are 1000 to 10000 nM and less than 100 nM.
